Reference: patent publication US20170258871A1, “COMBINED USE OF A TRKA INHIBITOR AND AN EPHA2 INHIBITOR FOR USING IN THE TREATMENT OF SOLID CANCERS, AND METHOD FOR THE PROGNOSIS OF SURVIVAL OF A PATIENT WHO HAS A SOLID CANCER” (UNIVERSITE DES SCIENCES ET TECHNOLOGIES DE LILLE, priority 2014, published 2017)

Legend:
[1] = system: MDA-MB-231 HA-TrkA tumours; assay: Xenograft of MDA-MB-231 HA-TrkA in SCID mice, tumour volume (Experiment 1); format: in vivo; details: 3 injections every 3 days from day 14; CEP-701 10 mg/kg intraperitoneal, siEphA2 7.5 microg/mouse close to the tumour
Method: FIG. 9: A study of the inhibition of TrkA and EphA2 on tumour development in vivo. The tumours were developed without any intervention for 14 days and then subjected to 3 injections (every 3 days, black arrows) of solvent (control), CEP-701 (10 mg/kg), siEphA2 (7.5 microg/mouse) or CEP-701 (10 mg/kg) and siEphA2 (7.5 microg/mouse). The experiments were stopped 31 days after the first injection of the treatment for ethical considerations after the death of the control mice. A) The tumour volumes were evaluated by measuring the length (;) and the width (w) and then calculating the volume using the formula π/6×l×W×(l+w)/2; the Mann and Whitney test was carried out between the control group and CEP-701 (a), between the control groups and siEphA2 (b), between the control groups and CEP-701+siEphA2 (c), and between the groups siEphA2 and CEP-701+siEphA2 (d)*, P<0.05; **, P<0.01; ns: not significant. B) Study of the inhibition of the expression of receptors by siRNA on the overall survival of SCID mice. […] The tumour volumes were evaluated by measuring the length (l) and width (w) and then calculating the volume using the formula π/6×l×W×(l+w)/2. […] Significance was measured using the log-rank test (P=0.0022). […]
Experiment 1: the mice used were six-week old SCID females. […] The tumour volume was measured according to the following formula: π/6×length×width×(width+length)/2. […]

[2] = system: Akt; assay: Western blot of Akt phosphorylation in MDA-MB-231 cells; format: cell-based; details: for effect on Akt activation induced by proNGF: proNGF N.C. 30 min, 10 nM K252a, 15 μM LY294002, 50 nM SKI-1 or siEphA2
Method: (§1) FIG. 8: A study of the role of TrkA and EphA2 in the activation of proteins Akt and Src. Cells MDA-MB-231 were respectively treated with a TrkA inhibitor (K252a), an anti-EphA2 siRNA (siEphA2), an inhibitor of PI3-K (LY294002) and an inhibitor of Src (SKI-1).
(§2) A and D. Cells MDA-MB-231 HA-TrkA were treated with proNGF N.C. […] The phosphorylation of Akt and Src was determined by using phospho-specific antibodies. The equal charge was verified using Akt and Src antibodies.
(§3) C and F. The phosphorylation of Akt and Src was determined in the total lysates coming from cells MDA-MB-231 transfected with siEphA2 and treated for 30 minutes with proNGF N.C. (C) or NGF (F).
(§4) After treatment, the cells were lysed (lysis buffer: 40 mM HEPES pH 7.5; 1 mM EDTA pH 8.0; 120 mM NaCl; 10 mM NaPPi; 50 mM NaF; 1.5 mM Na3VO4; 1% Triton X 100; 0.1% SDS; 1 mM PMSF; 10% glycerol and 1/100 th of protease inhibitor cocktail (Sigma) (20 min; 4° C.)). The lysates were recovered and clarified by centrifugation (12,000 g; 10 min; 4° C.). The supernatant was then stored at −80° C. until use. The protein extracts were diluted to 2 μg·μL−1 in a Laemmli 1× buffer (7 min; 100° C.) then deposited and separated on SDS-PAGE (concentration gel 3.6% acrylamide and separation gel 7.5% to 10% acrylamide (thickness 1 mm); 180 V; 10 min then 200 V constant; until output of the migration front). The proteins separated by SDS-PAGE were transferred according to the semi-dry transfer method (buffer: 48 mM Tris base, 39 mM glycine, 1.64 mM SDS, 20% methanol (v/v); 14 V; 15 min per gel) or liquid (buffer: 25 mM Tris base and 192 mM glycine; 15% methanol (v/v); 100 V; 30 min) on nitrocellulose membranes (0.45 μm; Whatman; Germany) or PVDF (0.45 μm; Immobilon P; Millipore; France). The PVDF membrane was “activated” beforehand (methanol; 10 min; 20° C.). The membranes were then saturated (TBS-T; 5% BSA; 1 h; 20° C.) then incubated (16 h; 4° C.) with the chosen primary antibody. […] The membranes were placed in an image analyser (LAS 4000; Fuji) connected to a computer which allowed image generation (software Image Reader LAS 4000).
(§5) The antibody against EphA2 was sc-924 (Santa Cruz), the antibody against sortilin was BD Bioscience 612101, the antibody against TrkA was sc 14024 (Santa Cruz), the antibody against HA was MMS-101R (Covance), the antibody against Akt was Cell Signaling 4691, the antibody against phospho-Akt (Ser 473) was Cell Signaling 9271, the antibody against Src was Cell Signaling 2109 (WB), the antibody against PhosphoSrc (Tyr416) was Cell Signaling 2105 and the antibody against actin was Sigma A2066.
(§6) Proteins Akt and Src were both involved in the pro-invasive effect of proNGF. In order to identify the role of TrkA and EphA2 in the activation of proteins Akt and Src, cells MDA-MB-231 were treated respectively with a TrkA inhibitor (K252a), an anti-EphA2 siRNA (siEphA2) the sequence of which is presented in table 1, a PI3-K inhibitor (LY294002) (the activation of Akt in effect underlies that of PI3-K) and an inhibitor of Src (SKI-1).

[3] = system: Src; assay: Western blot of Src phosphorylation in MDA-MB-231 cells; format: cell-based
Method: as §1, §2, §3, §4, §5, §6

[4] = system: tumours xenografted with cells MDA-MB-231 overexpressing TrkA; details: previously demonstrated, ref (34); cited from earlier work
[5] = NGF 30 min, 10 nM K252a or siEphA2

Row | Structure (SMILES) | tumour volume / growth of xenografted tumours vs control [1] | effect on Akt phosphorylation induced by NGF [2, 5] | effect on Akt activation induced by proNGF [2] | effect on Src phosphorylation induced by NGF [3, 5] | growth of xenografted tumours [4] | effect on Src activation induced by proNGF ([3]; proNGF N.C. 30 min, 10 nM K252a, 15 μM LY294002, 50 nM SKI-1 or siEphA2)
1 | C[C@]12O[C@H](C[C@]1(O)CO)n1c3ccccc3c3c4c(c5c6ccccc6n2c5c31)CNC4=O [CEP-701, reference compound] | slightly, but not significantly, reduced |  |  |  |  | 
2 | COC(=O)[C@@]1(O)C[C@H]2O[C@]1(C)n1c3ccccc3c3c4c(c5c6ccccc6n2c5c31)C(=O)NC4 [K252a, reference compound] |  | inhibited this activation | abolished the activation of Akt | inhibited this activation | reduces the growth of tumours | 
3 | COc1cc2ncnc(Nc3ccc(Oc4ccccc4)cc3)c2cc1OC [SKI-1, reference compound] |  |  | does not affect the phosphorylation of Akt |  |  | inhibition of Src
